“And” between values parts separate entries of the source, which are not always exact repeats. Equal values may be shown once. “Also recorded” adds a separate entry of the source. Where only a bound is given, the exact number is not on record here.

In data set [1] the test system is endometriotic lesions. The data set can be described thus: Endometriosis mouse model, lesion efficacy. It is filed as in vivo. As to conditions: for endometriotic lesion growth: excised lesions. The protocol:
FIGS. 17A-17F depict the robust efficacy of the inhibitory compounds of the present disclosure as NTRK2 inhibitors for inhibition of endometriotic lesion growth in mice utilizing CDD-3132 as an example. FIG. 17A provides a schematic overview of the experiment performed. FIGS. 17B-17C provide photographs showing excised lesions with administration of a control (FIG. 17B) or CDD-3132 (10 mg/kg/day) (FIG. 17C).
(§1) In one aspect, the present disclosure provides exemplary data relating to the administration of NTRK2 inhibitors in a mouse model of endometriosis (FIG. 14). In certain embodiments, the recipient mouse is administered the NTRK2 inhibitor and/or controls on day 14 after intraperitoneal injection of endometrium of the donor mouse. In certain embodiments, the recipient mouse is sacrificed and quantitatively assessed on day 28.

The target in data set [2] is T1, NTRK2 (Homo sapiens (Human), UniProt Q16620). The data set can be described thus: NTRK2 inhibition (IC50). It is filed as biochemical.
T1 sequence (Q16620 32-822): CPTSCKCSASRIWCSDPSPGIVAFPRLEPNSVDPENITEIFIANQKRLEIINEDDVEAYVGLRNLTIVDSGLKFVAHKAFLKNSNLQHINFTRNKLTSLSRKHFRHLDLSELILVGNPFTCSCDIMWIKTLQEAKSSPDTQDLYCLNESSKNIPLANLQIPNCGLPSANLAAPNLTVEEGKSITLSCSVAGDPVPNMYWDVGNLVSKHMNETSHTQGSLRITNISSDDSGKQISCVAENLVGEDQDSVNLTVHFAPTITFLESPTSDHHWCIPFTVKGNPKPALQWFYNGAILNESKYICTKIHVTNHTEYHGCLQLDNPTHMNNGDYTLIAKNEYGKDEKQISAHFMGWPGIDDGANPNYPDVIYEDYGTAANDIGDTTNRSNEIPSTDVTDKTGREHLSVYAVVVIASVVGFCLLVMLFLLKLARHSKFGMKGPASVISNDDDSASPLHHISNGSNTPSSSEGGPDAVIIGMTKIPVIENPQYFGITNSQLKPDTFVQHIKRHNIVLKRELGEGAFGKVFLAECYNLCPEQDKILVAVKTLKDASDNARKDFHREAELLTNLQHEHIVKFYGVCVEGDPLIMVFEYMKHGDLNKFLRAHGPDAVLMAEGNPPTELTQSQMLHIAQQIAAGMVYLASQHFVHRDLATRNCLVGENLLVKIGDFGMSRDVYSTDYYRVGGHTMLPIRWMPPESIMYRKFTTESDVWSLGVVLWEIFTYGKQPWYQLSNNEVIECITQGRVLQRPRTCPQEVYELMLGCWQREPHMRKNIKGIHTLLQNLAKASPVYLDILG
In data set [3] the target is T1, NTRK2. The data set is described as follows: Promega NTRK2 NanoBRET live-cell target engagement. The class given is cell-based. The conditions noted are these: live cells. From the text: FIGS. 6A-6B show the live-cell engagement (FIG. 6A) concept and an NTRK2 example (FIG. 6B). FIG. 6A: Depiction of Promega's NanoBRET target engagement system as per their website. The system involves cell-based competitive displacement of a fluorescent NanoBRET tracer bound reversibly to a NanoLuc fusion protein. Test compounds displace the tracer dependent on their affinity for the target and […] the NanoBRET signal. FIG. 6B: Example of the use of Promega's NTRK2 NanoBRET cell-based system. Each NTRK2 compound (Cpd) was assayed in kinase assays and in cells. Multiple NTRK2 compounds enter the cell and are potent nanomolar inhibitors in these assays (% normalized to no Cpd).
As described elsewhere herein, hit compounds, including but not limited to CDD-2262, and its smaller analog, CDD-2330, were synthesized off-DNA and evaluated for NTRK2 activity.

The target of data set [4] is NTRK1 (Homo sapiens (Human), UniProt P04629). The data set is described as follows: NTRK1 inhibition (IC50). The conditions noted are these: read-out: NTRK1 IC50.
Sequence of NTRK1 (P04629 33-796): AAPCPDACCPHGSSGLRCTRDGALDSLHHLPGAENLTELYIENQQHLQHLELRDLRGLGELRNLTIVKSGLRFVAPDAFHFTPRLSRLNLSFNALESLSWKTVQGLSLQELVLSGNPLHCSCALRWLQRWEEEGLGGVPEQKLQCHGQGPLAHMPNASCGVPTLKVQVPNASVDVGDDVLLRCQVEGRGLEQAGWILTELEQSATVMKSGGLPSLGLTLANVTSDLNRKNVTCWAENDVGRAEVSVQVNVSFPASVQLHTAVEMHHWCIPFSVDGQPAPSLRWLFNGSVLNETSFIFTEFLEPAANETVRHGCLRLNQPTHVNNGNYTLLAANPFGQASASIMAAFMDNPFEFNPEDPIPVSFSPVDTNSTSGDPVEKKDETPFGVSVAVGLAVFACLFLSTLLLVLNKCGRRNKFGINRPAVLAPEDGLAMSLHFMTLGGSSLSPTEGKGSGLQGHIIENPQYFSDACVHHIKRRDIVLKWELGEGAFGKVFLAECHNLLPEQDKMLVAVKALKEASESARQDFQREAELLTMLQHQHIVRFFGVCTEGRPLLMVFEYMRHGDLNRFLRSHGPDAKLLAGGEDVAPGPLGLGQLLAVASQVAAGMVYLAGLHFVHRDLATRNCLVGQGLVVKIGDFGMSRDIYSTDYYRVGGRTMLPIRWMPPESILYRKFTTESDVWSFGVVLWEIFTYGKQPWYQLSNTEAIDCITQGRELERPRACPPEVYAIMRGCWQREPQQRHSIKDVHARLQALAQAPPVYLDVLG
Data set [5] in a line: Metabolic stability in mouse liver microsomes (MLM).
Data set [6] in a line: Metabolic stability in human liver microsomes (HLM).
The nature of data set [7]: Brain uptake in mice 24 hours post-administration. It is filed as in vivo, mouse. As to conditions: mouse, brain, 24 h, read-out: Brain Concentration at 24 h (ng/mg).
Data set [8] can be described thus: Endometriosis mouse model, liver and kidney toxicity (organ weight, ALT, AST). The class given is in vivo. Also on record: ALT (Mean ± SD) / AST (Mean ± SD): unit not given here. The conditions noted are these: for effect on liver and/or kidney weight and/or serum elevation of ALT and AST: 10 mg/kg, mice with endometriotic lesions; for ALT (Mean ± SD) / AST (Mean ± SD): i.p. dose of 10 mg/kg/day for 14 days; for impact on liver and kidney weights: mice treated for 14 days. The protocol: as §1

The target of data set [9] is NTRK3 (Homo sapiens (Human), UniProt Q16288). The data set is described as follows: NTRK3 inhibition (IC50). As to conditions: read-out: NTRK3 IC50.
Sequence of NTRK3 (Q16288 32-839): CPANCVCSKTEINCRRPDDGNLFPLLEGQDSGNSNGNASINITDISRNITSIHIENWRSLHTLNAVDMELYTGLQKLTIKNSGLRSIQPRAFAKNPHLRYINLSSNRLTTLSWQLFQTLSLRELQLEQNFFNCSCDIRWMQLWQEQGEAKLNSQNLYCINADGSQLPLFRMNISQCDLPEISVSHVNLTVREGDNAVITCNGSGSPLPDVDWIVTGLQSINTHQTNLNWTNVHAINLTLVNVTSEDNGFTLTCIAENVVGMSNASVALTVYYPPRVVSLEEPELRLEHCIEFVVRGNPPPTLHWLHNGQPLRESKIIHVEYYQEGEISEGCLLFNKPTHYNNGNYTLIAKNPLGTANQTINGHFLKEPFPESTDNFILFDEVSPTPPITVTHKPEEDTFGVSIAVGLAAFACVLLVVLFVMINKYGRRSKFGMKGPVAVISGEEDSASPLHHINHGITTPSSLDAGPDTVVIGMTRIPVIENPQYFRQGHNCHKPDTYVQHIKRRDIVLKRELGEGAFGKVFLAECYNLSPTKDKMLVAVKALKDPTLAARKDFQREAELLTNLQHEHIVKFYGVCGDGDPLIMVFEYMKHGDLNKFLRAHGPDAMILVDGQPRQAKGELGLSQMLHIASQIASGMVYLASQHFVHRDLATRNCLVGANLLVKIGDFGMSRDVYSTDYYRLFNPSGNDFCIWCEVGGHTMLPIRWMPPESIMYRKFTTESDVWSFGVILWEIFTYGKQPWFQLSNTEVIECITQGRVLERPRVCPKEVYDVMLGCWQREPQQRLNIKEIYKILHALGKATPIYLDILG
[10] abbreviates: group average, CDD-2737 at 10 mg/kg/day for 14 days, n-butyrate 100 mM.
Setting [11] is: individual mice, CDD-2737 at 10 mg/kg/day for 14 days, n-butyrate 100 mM.
Where [12] appears, read: 10 mg/kg, compared to vehicle control.

For the compound `O=C(Nc1ccccc1C(=O)NC1CCCCNC1=O)c1cc2ccccc2s1` (centres unmarked) [ANA-12, reference compound], in data set [1] (mice), the endometriotic lesion regression result is “endometriotic lesion regression”.
In the case of `CC(C)N(Cc1ccn2nccc2c1)C(=O)Nc1ccc(OC(F)(F)F)cc1` [CDD-2299, 1-isopropyl-1-(pyrazolo[1,5-a]pyridin-5-ylmethyl)-3-(4-(trifluoromethoxy)phenyl)urea], the IC50 turned out to be 3.7 nM in data set [2] and 31 nM in data set [4]. In addition, the “cell penetration and effect in NanoBRET assays” value (shortened to “cell penetration and effect”) in [3] is “able to penetrate cell membranes to induce an effect”. The half-life amounted to 0.337 h in [5] and 0.718 h in data set [6].
Turning to `CC(C)N(Cc1ccn2ncc(C(N)=O)c2c1)C(=O)Nc1ccc(OC(F)(F)F)cc1` [CDD-2737, 5-((1-isopropyl-3-(4-(trifluoromethoxy)phenyl)ureido)methyl)pyrazolo[1,5-a]pyridine-3-carboxamide], the IC50 in [2] came out at 2.3 nM; in data set [4], 6.1 nM; in data set [9], 3.1 nM. Also, in [3], the “cell penetration and effect” value is given as “able to penetrate cell membranes to induce an effect”. The concentration at 24 h in [7] worked out at 40 ng/g. Besides, in data set [1] (endometriosis mouse model, compared to controls), the “number and size of lesions” value was “decreases the number of lesions and the size of lesions; also recorded: decreased number of lesions and lesions of diminished size”. The “gross and serum effects on the liver and kidney” value in [8] (endometriosis mouse model) is recorded as “no gross or serum effects; also recorded: no gross effects”. Also, in [8] (setting [10]), the “ALT (U/L), Average” value is 15.2 U/L. Also, in data set [8] (setting [10]), the “AST (U/L), Average” value amounted to 31.3 U/L. Further, the “ALT (U/L)” value in data set [8] (setting [11]) was 13.79 U/L and 13.61 U/L and 10.25 U/L and 23.16 U/L. The “AST (U/L)” value in [8] (setting [11]) is 28.11 U/L and 47.21 U/L and 27.58 U/L and 22.28 U/L. Besides, the figures for the half-life in data set [5] and in [6] were 2.6 h and 3.17 h, respectively.
As for `NC(=O)c1cnn2ccc(CN(C(=O)Nc3ccc(OC(F)(F)F)cc3)C3CC3)cc12` [CDD-2738, 5-((1-cyclopropyl-3-(4-(trifluoromethoxy)phenyl)ureido)methyl)pyrazolo[1,5-a]pyridine-3-carboxamide], the IC50 in data set [2] is 0.52 nM; in data set [4], 7.5 nM; in data set [9], 1.51 nM. Moreover, in data set [7], the concentration at 24 h is 2300 ng/g. In addition, the half-life is 3.73 h in data set [5] and 6.35 h in data set [6].
As to `CC(C)c1ccc(OCC(=O)N(Cc2ccn3ncc(C(N)=O)c3c2)C(C)C)cc1` [CDD-3032, 5-((N-isopropyl-2-(4-isopropylphenoxy)acetamido)methyl)pyrazolo[1,5-a]pyridine-3-carboxamide], the IC50 in [2] amounted to 6.1 nM; in [4], 34 nM; in data set [9] it was 13.7 nM. The “cell penetration and effect” value in data set [3] is given as “able to penetrate cell membranes to induce an effect”. In addition, the half-life in data set [5] is 0.105 h; in data set [6] it was 0.472 h.
With `CC(C)N(Cc1ccn2ncc(C(N)=O)c2c1)C(=S)Nc1ccc(OC(F)(F)F)cc1` [CDD-3119, 5-((1-isopropyl-3-(4-(trifluoromethoxy)phenyl)thioureido)methyl)pyrazolo[1,5-a]pyridine-3-carboxamide], the IC50 in [2] was found to be 3.6 nM. Further, the concentration at 24 h in [7] came to 140 ng/g. The “number, volume and mass of lesions” value in [1] (setting [12]) was “reduction of lesions, volume of lesions, and mass of lesions”. The endometriotic lesion growth result in data set [1] (10 mg/kg) is reported as “inhibiting endometriotic lesion growth”. In data set [8], the “effect on liver and/or kidney weight and/or serum elevation of ALT and AST” value (shortened to “effect … of ALT and AST”) was “little to no effect”; the “ALT (Mean ± SD)” value came out at 21.3 ± 4.9; the “AST (Mean ± SD)” value was 53.2 ± 18.5; the “impact on liver and kidney weights” value was “no significant impact”. The IC50 in data set [4] was 3.8 nM. For the same compound, the IC50 in [9] is 6.6 nM. This compound also registered a half-life in [5] of 4.83 h. This compound also yielded a half-life in data set [6] of 1.6 h.
Take `CN(Cc1ccn2ncc(C(N)=O)c2c1)C(=O)COc1ccc(OC(F)(F)F)cc1` [CDD-3132, 5-((N-methyl-2-(4-(trifluoromethoxy)phenoxy)acetamido)methyl)pyrazolo[1,5-a]pyridine-3-carboxamide]: in [2], the IC50 amounted to 517 nM. In addition, in data set [1] (setting [12]), the “number, volume and mass of lesions” value was “reduction of lesions, volume of lesions, and mass of lesions”; the “size of endometriotic lesions” value was “decreased size of endometriotic lesions”. The endometriotic lesion growth result in data set [1] (10 mg/kg) is reported as “inhibiting endometriotic lesion growth”. Besides, the “proliferation, vascularization, macrophage infiltration, inflammation within endometriotic lesions” value in [1] (10 mg/kg, H&E staining, confocal microscopy) is on record as “reduction of proliferation, vascularization, macrophage infiltration, and/or inflammation”. In [8], the “effect … of ALT and AST” value is reported as “little to no effect”; the “ALT (Mean ± SD)” value is on record as 20.5 ± 12.6; the “AST (Mean ± SD)” value was 33.5 ± 20.6; the “impact on liver and kidney weights” value is listed as “no significant impact”. For the same compound, the half-inhibitory concentration (IC50) in data set [4] was 4560 nM. Moreover, the IC50 in data set [9] was 1370 nM. Also, in data set [5], the half-life came to 11.8 h. The same compound displayed a half-life in data set [6] of 11.5 h.
Turning to `CC(C)N(Cc1ccn2ncc(C(N)=O)c2c1)C(=O)CNc1ccc(OC(F)(F)F)cc1` [CDD-3254, 5-((N-isopropyl-2-((4-(trifluoromethoxy)phenyl)amino)acetamido)methyl)pyrazolo[1,5-a]pyridine-3-carboxamide], the half-inhibitory concentration (IC50) in data set [2] was 59 nM; in data set [4], 277 nM; in data set [9], 142 nM. For the same compound, the half-life in data set [5] came out at 2.38 h; in data set [6], 3.22 h.
The corresponding values for `C=C(C)c1ccc(OCC(=O)N(Cc2ccn3ncc(C(N)=O)c3c2)C(C)C)cc1` [CDD-3255, 5-((N-isopropyl-2-(4-(prop-1-en-2-yl)phenoxy)acetamido)methyl)pyrazolo[1,5-a]pyridine-3-carboxamide] are 31.5 nM, 357 nM, 54 nM, 0.317 h and 0.75 h.
Regarding `CC(=O)c1ccc(OCC(=O)N(Cc2ccn3ncc(C(N)=O)c3c2)C(C)C)cc1` [CDD-3256, 5-((2-(4-acetylphenoxy)-N-isopropylacetamido)methyl)pyrazolo[1,5-a]pyridine-3-carboxamide], the IC50 is 223 nM in data set [2], 1870 nM in data set [4] and 312 nM in [9]. Also, the half-life in [5] and in data set [6] was more than 3.33 h throughout.
As for `CC(=O)c1ccc(OCC(=O)N(C)Cc2ccn3ncc(C(N)=O)c3c2)cc1` [CDD-3257, 5-((2-(4-acetylphenoxy)-N-methylacetamido)methyl)pyrazolo[1,5-a]pyridine-3-carboxamide], the IC50 was 10600 nM in [2], 58200 nM in [4] and 10900 nM in [9]. Further, the half-life in data set [5] and in data set [6] was more than 3.33 h in each case.
Regarding `CN(Cc1ccn2ncc(C(N)=O)c2c1)C(=O)CNc1ccc(OC(F)(F)F)cc1` [CDD-3258, 5-((N-methyl-2-((4-(trifluoromethoxy)phenyl)amino)acetamido)methyl)pyrazolo[1,5-a]pyridine-3-carboxamide], the IC50 in [2] amounted to 963 nM; in data set [4], 11000 nM; in [9] it was 2320 nM. The half-life in data set [5] worked out at 5.63 h; in [6], 4.5 h.
In the case of `CC(C)(CO)n1cc(C(=O)c2cncc(NC(=O)Cc3ccc(Cl)cn3)c2)c2cnc(N)nc21` [PF-0672, reference compound], the “effect … of ALT and AST” value in data set [8] is given as “little to no effect”.
Turning to `CC(C)(CO)n1cc(C(=O)c2cncc(NC(=O)Cc3ccc(Cl)cn3)c2)c2cnc(N)nc21` [PF-06273340, N-[5-[[2-Amino-7-(2-hydroxy-1,1-dimethylethyl)-7H-pyrrolo[2,3-d]pyrimidin-5-yl]carbonyl]-3-pyridinyl]-5-chloro-2-pyridineacetamide, reference compound], the concentration at 24 h in data set [7] is 80 ng/g. Moreover, in data set [1] (setting [12]), the “number, volume and mass of lesions” value was “reduction of lesions, volume of lesions, and mass of lesions”. Besides, in data set [1] (10 mg/kg), the endometriotic lesion growth result is recorded as “inhibiting endometriotic lesion growth”. For the same compound, in data set [8], the “ALT (Mean ± SD)” value was found to be 15.1 ± 1.6 and the “AST (Mean ± SD)” value is 25.3 ± 7.1. Further, the half-life in data set [5] stood at 3.37 h. The half-life in data set [6] was 8.37 h.

Values taken from patent US20260049077A1, “Neurotrophic Receptor Tyrosine Kinase (NTRK) Inhibitors and Methods Using Same” (Baylor College of Medicine, priority 2022, published 2026).
